What was measured:
Subjects = experiment: ESA panel evaluation of compressed mints (cooling strength, flavor strength, bitterness/off-taste); type: in vivo, human; settings: for upfront cooling intensity: first 3 minutes, 9-point scale, WS-5 500 ppm
Method: All samples were prepared in a pilot plant under good manufacture practice conditions. Samples made for consumer descriptive analysis passed a metal detector test. One sample of each mint formulation was further evaluated in both Expert Sensory Analysis (ESA) and Descriptive Analysis tests.
Compressed mint samples were evaluated for cooling strength, flavor strength and bitterness, or off-taste in a randomized sampling order by a 9-point scale: 0 being the lowest and 9 being the highest. Subjects were allowed to suck the compressed mint (without biting or chewing) until completely dissolved. The coolant attributes were measured at different time points up to 15 minutes.
The level of WS-12 was increased to levels from 250 to 1000 ppm (0.025%-0.1% w/w) and additional ESA evaluations were conducted.

descriptive panel (N=8) = experiment: Consumer-Descriptive Analysis panel study of compressed mints; type: in vivo, human
Method: All samples were prepared in a pilot plant under good manufacture practice conditions. Samples made for consumer descriptive analysis passed a metal detector test. One sample of each mint formulation was further evaluated in both Expert Sensory Analysis (ESA) and Descriptive Analysis tests. A Consumer-Descriptive Analysis panel study was conducted. Four mints containing various level of cooling blend were formulated at a pilot plant. During the test, each member of the descriptive panel (N=8) sucked one piece of mint until it completely dissolved. During the mint consumption, panelists evaluated various cooling attributes including oral cool and nasal cool at several specified time points. Flavor and sweetener intensity, bitterness, and off-taste were also evaluated. Panelists continued the evaluation even after mint consumption was complete, for a total of 20 minutes from the beginning of the test.

[1] = compressed mint, WS-12 1000 ppm, WS-5 and WS-12 250 ppm of each

Row | Structure (SMILES) | cooling duration (Subjects; compressed mint, WS-12 1000 ppm, measured up to 15 minutes) [min] | upfront cooling intensity (Subjects; [1]) | cooling after 6 min (Subjects; compressed mint, compared to mint comprising WS-23 (1000 ppm), WS-12 1000 ppm, WS-5 and WS-12 250 ppm of each) | cooling intensity, flavor intensity or duration of cooling versus the control mints (Subjects; compressed mints, low level of WS-12 (25-100 ppm)) | oral cooling (descriptive panel (N=8); after the first 4 minutes, WS-23 0.1%) | oral cooling (descriptive panel (N=8); first 4 minutes, WS-23 0.1%) | oral cooling sustained after consumption (descriptive panel (N=8); compressed mint, WS-5) | oral cooling (descriptive panel (N=8); during the 15 minutes, vs control, WS-5 500 ppm, WS-5/WS-12 250/250 ppm)
1 | COc1ccc(NC(=O)[C@@H]2C[C@H](C)CC[C@H]2C(C)C)cc1 [WS-12, (1R,2S,5R)-N-(4-Methoxyphenyl)-5-methyl-2-(1-methylethyl)cyclohexanecarboxamide] | > 15 | very low upfront cooling | significant more cooling | No significant difference |  |  |  | 
2 | CNC(=O)C(C)(C(C)C)C(C)C [WS-23, N,2,3-Trimethyl-2-isopropylbutamide, reference compound] |  |  |  |  | lost cooling strength and became similar to the control | superior oral cooling |  | 
3 | CCOC(=O)CNC(=O)C1CC(C)CCC1C(C)C (stereo not drawn) [WS-5, N-(Ethoxycarbonylmethyl)-3-p-menthanecarboxamide] |  | strong cooling intensity upfront |  |  |  |  | up to 10 minutes | higher oral cooling
